In experiment [1] the test system is SARS-CoV-2-induced IL-1β P17 release in Calu-3 cells. In kind it is cell-based.
Experiment [2] has as its system SARS-CoV-2-trVLPs. In kind it is cell-based, SARS-CoV-2 (Wuhan-Hu-1 strain). Particulars: ratio of CC50 to antiviral EC50, Caco-2-N cells.
Experiment [3] deals with secretion of the matured form of IL-1β (P17) in SFTSV-infected THP-1 macrophages. Description: cells. In kind it is cell-based. Particulars: for inhibition at 10 µM: Homo sapiens, THP-1, 48 h, read-out: inhibition rate of IL-1β (P17) secretion.
Experiment [4] has as its target PDE4 (catalytic domain of human PDE4D) (Homo sapiens, UniProt Q08499). Description: PDE4 inhibition assay. In kind it is biochemical.
The target in experiment [5] is SARS-CoV-2 polymerase complex (RdRp; nsp12, nsp7-nsp8) (Severe acute respiratory syndrome coronavirus 2, UniProt P0DTD1). Description: biochemical. As to conditions: RdRp inhibition IC50, in vitro polymerase activity assay.

Sequence of PDE4 (catalytic domain of human PDE4D) (Q08499 388-715): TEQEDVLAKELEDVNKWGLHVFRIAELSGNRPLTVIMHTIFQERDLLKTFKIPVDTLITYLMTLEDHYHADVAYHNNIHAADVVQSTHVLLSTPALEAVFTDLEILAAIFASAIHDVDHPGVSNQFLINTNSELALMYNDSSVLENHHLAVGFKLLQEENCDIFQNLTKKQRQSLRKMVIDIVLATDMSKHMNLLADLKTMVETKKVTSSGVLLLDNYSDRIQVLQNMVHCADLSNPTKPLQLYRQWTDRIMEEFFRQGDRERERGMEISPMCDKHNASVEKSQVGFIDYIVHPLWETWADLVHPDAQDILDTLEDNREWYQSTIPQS

In the case of `COc1cc(O)ccc1/C=C/C(=O)c1ccc(O)cc1` [Echinatin], the “reduction of SARS-CoV-2-induced IL-1β P17 release, dose dependence” value in experiment [1] is reported as “dose-dependent effects”. Further, the “selectivity index (SI = CC50/EC50)” value in experiment [2] is above 5.0. In experiment [3], the “anti-inflammation activity (inhibition of P17 secretion), dose dependence” value is recorded as “dose-dependent manner” and the inhibition at 10 µM is above 90%.
Consider `Cc1cc(O)c2c(c1)C(=O)c1cc(O)cc(O)c1C2=O` [Emodin], for which the “selectivity index (SI = CC50/EC50)” value in experiment [2] is above 5.0.
`CC(C)=CCc1cc(-c2coc3cc(O)cc(O)c3c2=O)cc(O)c1O` [Glycyrrhisoflavone] yielded an IC50 in experiment [4] of 1.29 µM. Besides, the midpoint of inhibition in experiment [5], the IC50, lay at 28.9 µM. Further, the “reduction of SARS-CoV-2-induced IL-1β P17 release, dose dependence” value in experiment [1] is listed as “dose-dependent effects”. In experiment [2], the “selectivity index (SI = CC50/EC50)” value was above 5.0. In experiment [3], the “anti-inflammation activity (inhibition of P17 secretion), dose dependence” value was “dose-dependent manner” and the inhibition at 10 µM is above 90%.
As to `C=CCc1ccc(O)c(-c2cc(CC=C)ccc2O)c1` [Magnolol], in experiment [2], the “selectivity index (SI = CC50/EC50)” value is above 5.0.
With `O=c1c(O)c(-c2ccc(O)c(O)c2)oc2cc(O)cc(O)c12` [Quercetin], the midpoint of inhibition in experiment [4], the IC50, lay at 17.4 µM. Further, the “selectivity index (SI = CC50/EC50)” value in experiment [2] is above 5.0.

The record behind these values is paper PMC10160982 (Proceedings of the National Academy of Sciences of the …, 2023).
